Type in all cases: functional
For experiment [1], the system named is Staphylococcus aureus. Briefly: Antibacterial activity against erythromycin-susceptible Staphylococcus aureus 29213 by broth-microdilution method. To be noted: ATCC29213. Background: In broth dilution the organism is exposed to a series of concentrations in liquid medium.
Experiment [2] concerns Staphylococcus aureus. Briefly: Antibacterial activity against MLSB-resistant Staphylococcus aureus 27660 by broth-microdilution method.
In experiment [3] the test system is Staphylococcus aureus. Briefly: Antibacterial activity against methicillin-resistant Staphylococcus aureus 33591 by broth-microdilution method.
The test system of experiment [4] is Streptococcus pneumoniae. Briefly: Antibacterial activity against erythromycin-susceptible Streptococcus pneumoniae 49619 by broth-microdilution method.
Experiment [5] deals with Streptococcus pneumoniae. Briefly: Antibacterial activity against erythromycin-resistant Streptococcus pneumoniae 7701 expressing mef gene by broth-microdilution method.
Experiment [6] deals with Streptococcus pneumoniae. Briefly: Antibacterial activity against erythromycin-resistant Streptococcus pneumoniae 700906 expressing […] gene by broth-microdilution method.
The subject of experiment [7] is Streptococcus pyogenes. Briefly: Antibacterial activity against erythromycin-susceptible Streptococcus pyogenes 19615 by broth-microdilution method.
Experiment [8] has as its system Streptococcus pyogenes. Briefly: Antibacterial activity against erythromycin-resistant Streptococcus pyogenes 1323 expressing mef gene by broth-microdilution method.
For experiment [9], the system named is Streptococcus pyogenes. Briefly: Antibacterial activity against erythromycin-resistant Streptococcus pyogenes 2912 expressing erm gene by broth-microdilution method.
The subject of experiment [10] is Haemophilus influenzae. Briefly: Antibacterial activity against ampicillin-resistant Haemophilus influenzae 33929 by broth-microdilution method.
Experiment [11] has as its system Haemophilus influenzae. Briefly: Antibacterial activity against ampicillin-susceptible Haemophilus influenzae by broth-microdilution method.
The test system of another experiment is Moraxella catarrhalis. Briefly: Antibacterial activity against Moraxella catarrhalis by broth-microdilution method.
Experiment [12] deals with Staphylococcus aureus. Briefly: Antibacterial activity against macrolide-susceptible Staphylococcus aureus Smith infected in mouse.
Experiment [13] concerns Staphylococcus aureus. Briefly: Antibacterial activity against macrolide-resistant Staphylococcus aureus 7701 infected in mouse.
Experiment [14] deals with Staphylococcus aureus. Briefly: Antibacterial activity against macrolide-susceptible Staphylococcus aureus Smith by broth-microdilution method.

Each structure is given as a SMILES string. ≈ marks a conversion by molar mass, not a printed value.

With `C=C1CO[C@H]2[C@H](C)[C@@H](O[C@@H]3O[C@H](C)C[C@H](N(C)C)[C@H]3O)[C@](C)(C[C@@H](C)[C@H](N)[C@H](C)[C@@H](O)[C@](C)(O)[C@@H](CC)OC(=O)[C@@H]2C)OC1`, the MIC against Staphylococcus aureus [1] was 4 µg/mL (≈ 6.36 µM); against Staphylococcus aureus [2] it was 4 µg/mL (≈ 6.36 µM); with Staphylococcus aureus [3] it was over 64 µg/mL; in the experiment with Streptococcus pneumoniae [4], at most 0.06 µg/mL; in the experiment with Streptococcus pneumoniae [5] it was 0.125 µg/mL (≈ 0.199 µM); in the experiment on Streptococcus pneumoniae [6], over 64 µg/mL. For the same compound, the MIC is at most 0.06 µg/mL in the experiment on Streptococcus pyogenes [7]; 0.25 µg/mL (≈ 0.398 µM) with Streptococcus pyogenes [8]; 64 µg/mL (≈ 102 µM) against Streptococcus pyogenes [9]; 32 µg/mL (≈ 50.9 µM) against Haemophilus influenzae [10]; 32 µg/mL (≈ 50.9 µM) in the experiment on Haemophilus influenzae [11]; 0.5 µg/mL (≈ 0.795 µM) in the experiment on Moraxella catarrhalis.

As for `C=C1CO[C@H]2[C@H](C)[C@@H](O[C@@H]3O[C@H](C)C[C@H](N(C)C)[C@H]3O)[C@](C)(C[C@@H](C)C(=N)[C@H](C)[C@@H](O)[C@](C)(O)[C@@H](CC)OC(=O)[C@@H]2C)OC1`, the MIC is 2 µg/mL (≈ 3.19 µM) against Staphylococcus aureus [1]; 2 µg/mL (≈ 3.19 µM) in the experiment on Staphylococcus aureus [2]; over 64 µg/mL against Staphylococcus aureus [3]; 0.125 µg/mL (≈ 0.199 µM) in the experiment with Streptococcus pneumoniae [4]; 0.25 µg/mL (≈ 0.399 µM) in the experiment with Streptococcus pneumoniae [5]; over 64 µg/mL against Streptococcus pneumoniae [6]. Also, the MIC was determined as 0.125 µg/mL (≈ 0.199 µM) in the experiment with Streptococcus pyogenes [7]; 0.5 µg/mL (≈ 0.798 µM) in the experiment on Streptococcus pyogenes [8]; 64 µg/mL (≈ 102 µM) against Streptococcus pyogenes [9]; 64 µg/mL (≈ 102 µM) in the experiment with Haemophilus influenzae [10]; 16 µg/mL (≈ 25.5 µM) against Haemophilus influenzae [11]; 0.5 µg/mL (≈ 0.798 µM) in the experiment with Moraxella catarrhalis.

As for `C=C1CO[C@H]2[C@H](C)[C@@H](O[C@@H]3O[C@H](C)C[C@H](N(C)C)[C@H]3O)[C@](C)(C[C@@H](C)C(=O)[C@H](C)[C@@H](O)[C@](C)(O)[C@@H](CC)OC(=O)[C@@H]2C)OC1`, the MIC was 1 µg/mL (≈ 1.59 µM) in the experiment on Staphylococcus aureus [1]; 1 µg/mL (≈ 1.59 µM) with Staphylococcus aureus [2]; over 64 µg/mL against Staphylococcus aureus [3]; 0.125 µg/mL (≈ 0.199 µM) against Streptococcus pneumoniae [4]; 0.25 µg/mL (≈ 0.398 µM) in the experiment with Streptococcus pneumoniae [5]; over 64 µg/mL with Streptococcus pneumoniae [6]. Further, the MIC with Streptococcus pyogenes [7] is 0.25 µg/mL (≈ 0.398 µM); in the experiment with Streptococcus pyogenes [8], 0.5 µg/mL (≈ 0.796 µM); against Streptococcus pyogenes [9], over 64 µg/mL; against Haemophilus influenzae [10] it was 64 µg/mL (≈ 102 µM); with Haemophilus influenzae [11], 64 µg/mL (≈ 102 µM); against Moraxella catarrhalis, 0.5 µg/mL (≈ 0.796 µM).

By ED50 is commonly meant the dose that gives a 50% effect, or the effect in half of the subjects. For the compound `C=C1CO[C@H]2[C@H](C)[C@@H](O[C@@H]3O[C@H](C)C[C@H](N(C)C)[C@H]3O)[C@](C)(C[C@@H](C)C(=O)[C@H](C)[C@@H]3NC(=O)O[C@]3(C)[C@@H](CC)OC(=O)[C@@H]2C)OC1`, the MIC in the experiment with Staphylococcus aureus [1] was 0.125 µg/mL (≈ 0.191 µM); in the experiment with Staphylococcus aureus [2], 0.125 µg/mL (≈ 0.191 µM); against Staphylococcus aureus [3], over 64 µg/mL; in the experiment on Streptococcus pneumoniae [4], at most 0.06 µg/mL; with Streptococcus pneumoniae [6], over 64 µg/mL; in the experiment on Streptococcus pyogenes [7] it was at most 0.06 µg/mL. The MIC against Streptococcus pyogenes [8] is 0.125 µg/mL (≈ 0.191 µM); with Streptococcus pyogenes [9], over 64 µg/mL; in the experiment with Haemophilus influenzae [10], 4 µg/mL (≈ 6.13 µM); in the experiment on Haemophilus influenzae [11], 2 µg/mL (≈ 3.06 µM); against Moraxella catarrhalis, at most 0.06 µg/mL; with Staphylococcus aureus [14] it was 0.125 µg/mL (≈ 0.191 µM). Besides, the ED50 was found to be 10 mg/kg in the experiment on Staphylococcus aureus [12] and 7 mg/kg in the experiment on Staphylococcus aureus [13].

For the compound `C=C1CO[C@H]2[C@H](C)[C@@H](O[C@@H]3O[C@H](C)C[C@H](N(C)C)[C@H]3O)[C@](C)(C[C@@H](C)/C(=N\O)[C@H](C)[C@@H](O)[C@](C)(O)[C@@H](CC)OC(=O)[C@@H]2C)OC1`, the MIC was 1 µg/mL (≈ 1.56 µM) against Staphylococcus aureus [1]; 1 µg/mL (≈ 1.56 µM) with Staphylococcus aureus [2]; over 64 µg/mL in the experiment on Staphylococcus aureus [3]; at most 0.06 µg/mL against Streptococcus pneumoniae [4]; 0.25 µg/mL (≈ 0.389 µM) with Streptococcus pneumoniae [5]; over 64 µg/mL against Streptococcus pneumoniae [6]. Further, the MIC against Streptococcus pyogenes [7] is 0.125 µg/mL (≈ 0.194 µM); against Streptococcus pyogenes [8], 0.25 µg/mL (≈ 0.389 µM); against Streptococcus pyogenes [9], over 64 µg/mL; with Haemophilus influenzae [10] it was 32 µg/mL (≈ 49.8 µM); with Haemophilus influenzae [11], 32 µg/mL (≈ 49.8 µM); against Moraxella catarrhalis it was 0.25 µg/mL (≈ 0.389 µM).

In the case of `CC[C@H]1OC(=O)[C@H](C)[C@@H](O[C@H]2C[C@@](C)(OC)[C@@H](O)[C@H](C)O2)[C@H](C)[C@@H](O[C@@H]2O[C@H](C)C[C@H](N(C)C)[C@H]2O)[C@](C)(O)C[C@@H](C)C(=O)[C@H](C)[C@@H](O)[C@]1(C)O` [ERYTHROMYCIN], the MIC was 0.5 µg/mL (≈ 0.681 µM) with Staphylococcus aureus [1]; over 64 µg/mL against Staphylococcus aureus [2]; over 64 µg/mL against Staphylococcus aureus [3]; at most 0.06 µg/mL in the experiment with Streptococcus pneumoniae [4]; 4 µg/mL (≈ 5.45 µM) in the experiment on Streptococcus pneumoniae [5]; over 64 µg/mL with Streptococcus pneumoniae [6]. Moreover, the MIC with Streptococcus pyogenes [7] is 0.015 µg/mL (≈ 0.0204 µM); against Streptococcus pyogenes [8], 16 µg/mL (≈ 21.8 µM); with Streptococcus pyogenes [9], over 64 µg/mL; in the experiment with Haemophilus influenzae [10], 4 µg/mL (≈ 5.45 µM); against Haemophilus influenzae [11], 4 µg/mL (≈ 5.45 µM); with Moraxella catarrhalis, 0.13 µg/mL (≈ 0.177 µM).

As to `CC[C@H]1OC(=O)[C@H](C)C(=O)[C@H](C)[C@@H](O[C@@H]2O[C@H](C)C[C@H](N(C)C)[C@H]2O)[C@](C)(OC)C[C@@H](C)C(=O)[C@H](C)[C@H]2N(CCCCn3cnc(-c4cccnc4)c3)C(=O)O[C@]12C` [TELITHROMYCIN], the ED50 in the experiment with Staphylococcus aureus [12] and in the experiment on Staphylococcus aureus [13] was 17.2 mg/kg each time. In addition, in the experiment with Staphylococcus aureus [14], the MIC was 0.125 µg/mL (≈ 0.154 µM).

Source of the values: ChEMBL document CHEMBL1152201, “Synthesis of 3,6-bicyclolides: a novel class of macrolide antibiotics” (2008).
